Assays:
Format in all cases: in vivo
[1] = tested on: large crabgrass (Digitaria adscendens); assay: Test Example 5: foliar application pot test, percent growth inhibition by fresh weight of aerial part and Colby's value; conditions: read-out: Percent Growth Inhibition (%) Found
Text: (§1) 1/10000-are pot was filled with upland farming soil and sown with velvet leaf. When the plant reached the 1-leaf stage, a predetermined amount of the herbicide of the present invention diluted with 5 ℓ of water per are and admixed with 0.1 vol%, based on the aqueous solution, of an agricultural spreader ("Kusa Rino") was foliarly applied to the plant with a small spray gun. On the 20th day from the application, the aerial part of the plant was weighed to obtain a percent growth inhibition according to Equation (1) (found value) and a Colby's value (calculated value) according to Equation (2) (see Weed, Vol. 15, pp. 20-22 (1967)). Percent Growth Inhibition (%) = (1 -(Fresh Weight of Aerial Part of Plant in Treated Plot)/(Fresh Weight of Aerial Part of Plant in Untreated Plot)) x 100 [formula] Colby's Value (E) = α + β -(α x β)/(100) [formula]
(§2) Wherein α represents a percent growth inhibition when treated with an amount a (g/a) of herbicide A; β represents a percent growth inhibition when treated with amount b (g/a) of herbicide B; and E represents an expected percent growth inhibition when treated with a of herbicide A and b of herbicide B.
1/10000-are pot was filled with upland farming soil and sown with large crabgrass (Digitaria adscendens). When the plant reached the 2-leaf stage, a predetermined amount of the herbicide of the present invention diluted with 5 ℓ of water per are and admixed with 0.1 vol%, based on the aqueous solution, of an agricultural spreader ("Kusa Rino") was foliarly applied to the plant with a small spray gun. On the 20th day from the application, the aerial part of the plant was weighed to obtain a percent growth inhibition and a Colby's value in the same manner as in Test Example 3.

[2] = tested on: velvet leaf; assay: Test Example 3: foliar application pot test, percent growth inhibition by fresh weight of aerial part and Colby's value; conditions: Abutilon theophrasti, velvet leaf 1-leaf stage, 20th day from foliar application, fresh weight of aerial part, read-out: Percent Growth Inhibition (%) Found; for inhibition at 16 g/ha: 0.16 g/a; for inhibition at 63 g/ha: 0.63 g/a
Text: as §1, §2

[3] = tested on: large crabgrass (Digitaria adscendens); assay: Test Example 1: foliar application pot test, visual growth control rating; design: key: 1: the same as in an untreated plot; 10: perfect growth control; conditions: wettable powder, observed 20 to 31 days after application
Summary of the method: (§3)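 Upland farming soil in pots is sown; each species is sprayed at a set stage (cotton cotyledon to 0.7 leaf, cocklebur 0.3–3.4, morning glory 0.3–1.6, crabgrass 1.2–3.0 leaf). Diluted wettable powder (5 ℓ/a, spreader added) goes on by spray gun, and control is rated 1–10 after 20–31 days.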

[4] = tested on: rice (Oryza sativa); assay: as above; design: key: 1: the same as in an untreated plot; 10: perfect growth control; conditions: wettable powder, observed 20 to 31 days after application
[5] = tested on: morning glory (Ipomoea purpurea); assay: as above; design: key: 1: the same as in an untreated plot; 10: perfect growth control; conditions: wettable powder, observed 20 to 31 days after application
Summary of the method: as §3

[6] = tested on: corn (Zea mays); assay: as above; design: key: 1: the same as in an untreated plot; 10: perfect growth control; conditions: wettable powder, observed 20 to 31 days after application
[7] = tested on: slender amaranth (Amaranthus viridis); assay: as above; design: key: 1: the same as in an untreated plot; 10: perfect growth control; conditions: wettable powder, observed 20 to 31 days after application
[8] = tested on: barnyard grass (Echinochloa crus-galli); assay: as above; design: key: 1: the same as in an untreated plot; 10: perfect growth control; conditions: wettable powder, observed 20 to 31 days after application
Summary of the method: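 Pots of 1/1,500 are were filled with upland soil and sown with barnyard grass. At the 1.5- to 3.2-leaf stage, the herbicide was applied to the foliage with a small spray gun as a wettable powder diluted in 5 ℓ/a of water plus 0.2 or 0.1 vol% agricultural spreader. Growth control was scored visually 20 to 31 days later on a 1–10 scale.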

[9] = tested on: velvet leaf; assay: Test Example 4: foliar application pot test, percent growth inhibition by fresh weight of aerial part and Colby's value; conditions: Abutilon theophrasti, read-out: Percent Growth Inhibition (%) Found
Text: as §1, §2
1/10000-are pot was filled with upland farming soil and sown with velvet leaf. When the plant reached the 1-leaf stage, a predetermined amount of the herbicide of the present invention diluted with 5 ℓ of water per are and admixed with 0.1 vol%, based on the aqueous solution, of an agricultural spreader ("Kusa Rino") was foliarly applied to the plant with a small spray gun. On the 20th day from the application, the aerial part of the plant was weighed to obtain a percent growth inhibition and a Colby's value in the same manner as in Test Example 3.

[10] = tested on: velvet leaf (Abutilon theophrasti); assay: Test Example 2: foliar application pot test, visual herbicidal effect rating, single and combined herbicides; conditions: velvet leaf 1.2-leaf stage, 25 days after foliar application; note: ranges in brackets are in %
Text: 1/10000-are pot was filled with upland farming soil and sown with velvet leaf (Abutilon theophrasti). When the plant reached the 1.2-leaf stage, a predetermined amount of the herbicide of the present invention diluted with 5 ℓ of water per are and admixed with 0.1 vol%, based on the aqueous solution, of an agricultural spreader ("Kusa Rino", produced by Nihon Nohyaku Co., Ltd.) was foliarly applied to the plant with a small spray gun. The herbicidal effect was visually observed 25 days after the foliar application and evaluated according to the rating system shown below.

[11] = tested on: soybean (Glycine max); assay: Test Example 1: foliar application pot test, visual growth control rating; design: key: 1: the same as in an untreated plot; 10: perfect growth control; conditions: 1.25 g/a active ingredient, wettable powder, observed 20 to 31 days after application
[12] = tested on: cocklebur (Xanthium strumarium); assay: as above; design: key: 1: the same as in an untreated plot; 10: perfect growth control; conditions: 1.25 g/a active ingredient, wettable powder, observed 20 to 31 days after application
Summary of the method: as §3

[13] = tested on: prickly sida (Sida spinosa); assay: as above; design: key: 1: the same as in an untreated plot; 10: perfect growth control; conditions: 1.25 g/a active ingredient, wettable powder, observed 20 to 31 days after application
[14] = tested on: wheat (Triticum); assay: as above; design: key: 1: the same as in an untreated plot; 10: perfect growth control; conditions: 1.25 g/a active ingredient, wettable powder, observed 20 to 31 days after application

Row | SMILES | degree of growth control, DI ([3]; 1.25 g/a active ingredient) | degree of growth control, OR ([4]; 1.25 g/a active ingredient) | degree of growth control, IP ([5]; 1.25 g/a active ingredient) | degree of growth control, ZE ([6]; 1.25 g/a active ingredient) | degree of growth control, AM ([7]; 1.25 g/a active ingredient) | degree of growth control, EC ([8]; 1.25 g/a active ingredient) | degree of growth control, GL [11] | degree of growth control, XA [12] | degree of growth control, SI [13] | degree of growth control, TR [14] | other results
1 | CCN(c1cccc(S(=O)(=O)NC(=O)Nc2nc(C)nc(OC)n2)n1)S(=O)(=O)C(C)Cl (racemic) [Compound No. 54, 6-[[N-(1-chloroethylsulfonyl)-N-ethyl]amino]-N-[[(4-methoxy-6-methyltriazin-2-yl)amino]carbonyl]-2-pyridinesulfonamide] | 3 | 9 | 9 | 10 | 9 | 10 | – | – | – | – | inhibition at 16 g/ha ([1]; 0.16 g/a, foliar application, 20th day, large crabgrass): 19%; inhibition at 31 g/ha ([1]; 0.31 g/a, foliar application, 20th day, large crabgrass): 24%; inhibition at 63 g/ha ([1]; 0.63 g/a, foliar application, 20th day, large crabgrass): 77%; inhibition at 16 g/ha [2]: 19%; inhibition at 31 g/ha ([2]; 0.31 g/a): 52%; inhibition at 63 g/ha [2]: 86%; degree of growth control, DI ([3]; 0.31 g/a active ingredient): 3; degree of growth control, OR ([4]; 0.31 g/a active ingredient): 9; degree of growth control, IP ([5]; 0.31 g/a active ingredient): 9; degree of growth control, ZE ([6]; 0.31 g/a active ingredient): 10; degree of growth control, AM ([7]; 0.31 g/a active ingredient): 9; degree of growth control, EC ([8]; 0.31 g/a active ingredient): 10; inhibition at 16 g/ha ([9]; 0.16 g/a, velvet leaf 1-leaf stage, 20th day from foliar application, fresh weight of aerial part): 12%; inhibition at 31 g/ha ([9]; 0.31 g/a, velvet leaf 1-leaf stage, 20th day from foliar application, fresh weight of aerial part): 32%; inhibition at 63 g/ha ([9]; 0.63 g/a, velvet leaf 1-leaf stage, 20th day from foliar application, fresh weight of aerial part): 66%; Rating ([10]; 0.16 g/a): 3 (30-39); Rating ([10]; 0.31 g/a): 5 (50-59); Rating ([10]; 0.63 g/a): 6 (60-69); Rating ([10]; 1.25 g/a): 8 (80-89)
2 | CC(C)N1C(=O)c2ccccc2NS1(=O)=O [Bentazon, 3-(1-methylethyl)-(1H)-2,1,3-benzothiadiazin-4(3H)-one-2,2-dioxide, reference compound] | – | – | – | – | – | – | – | – | – | – | inhibition at 63 g/ha [2]: 17%; inhibition at 125 g/ha ([2]; 1.25 g/a): 69%
3 | CCOC(=O)c1ccccc1S(=O)(=O)NC(=O)Nc1nc(Cl)cc(OC)n1 [Chlorimuron-ethyl, ethyl 2-[[[[(4-chloro-6-methoxy-2-pyrimidinyl)amino]carbonyl]amino]sulfonyl]benzoate] | – | – | – | – | – | – | – | – | – | – | Rating ([10]; 0.02 g/a): 6 (60-69); Rating ([10]; 0.04 g/a): 8 (80-89); Rating ([10]; 0.08 g/a): 9 (90-99)
4 | CS(=O)(=O)NC(=O)c1cc(Oc2ccc(C(F)(F)F)cc2Cl)ccc1[N+](=O)[O-] [Fomesafen, 5-[2-chloro-4-(trifluoromethyl)phenoxy]-N-(methylsulfonyl)-2-nitrobenzamide] | – | – | – | – | – | – | – | – | – | – | Rating ([10]; 0.25 g/a): 3 (30-39); Rating ([10]; 0.5 g/a): 7 (70-79); Rating ([10]; 1.00 g/a): 7 (70-79)
5 | CON(C)C(=O)Nc1ccc(Cl)c(Cl)c1 [Linuron, 3-(3,4-dichlorophenyl)-1-methoxy-1-methylurea, reference compound] | – | – | – | – | – | – | – | – | – | – | inhibition at 12.5 g/ha ([1]; foliar): 23%; inhibition at 25 g/ha ([1]; foliar): 68%; inhibition at 50 g/ha ([1]; foliar): 79%; inhibition at 12.5 g/ha ([9]; foliar): 35%; inhibition at 25 g/ha ([9]; foliar): 61%
6 | CSc1nnc(C(C)(C)C)c(=O)n1N [Metribuzin, 4-amino-6-(1,1-dimethylethyl)-3-(methylthio)-1,2,4-triazin-5(4H)-one, reference compound] | – | – | – | – | – | – | – | – | – | – | inhibition at 16 g/ha [2]: 89%
7 | CCCCN(c1cccc(S(=O)(=O)NC(=O)Nc2nc(C)nc(OC)n2)n1)S(=O)(=O)CCCC [compound 43] | 6 | 2 | 3 | 3 | 5 | 3 | 4 | 6 | 3 | 3 | –
8 | CCN(c1cccc(S(=O)(=O)NC(=O)Nc2nc(C)nc(OC)n2)n1)S(=O)(=O)CCl [compound 60] | 4 | 6 | 7 | 5 | 9 | 6 | 4 | 9 | 5 | 2 | –
9 | CCCCS(=O)(=O)N(CC(C)C)c1cccc(S(=O)(=O)NC(=O)Nc2nc(C)nc(OC)n2)n1 [compound 82] | 3 | 4 | 6 | 8 | 7 | 4 | 3 | 9 | 1 | 4 | –
10 | CCN(c1cccc(S(=O)(=O)NC(=O)Nc2nc(OC)nc(OC)n2)n1)S(=O)(=O)CC(F)(F)F [compound 92] | 3 | 5 | 10 | 7 | 5 | 6 | 7 | 10 | 6 | 9 | –
